# Target: T1, Bone morphogenetic protein 1 (Homo sapiens, UniProt P13497)
# T1 sequence (P13497 whole entry): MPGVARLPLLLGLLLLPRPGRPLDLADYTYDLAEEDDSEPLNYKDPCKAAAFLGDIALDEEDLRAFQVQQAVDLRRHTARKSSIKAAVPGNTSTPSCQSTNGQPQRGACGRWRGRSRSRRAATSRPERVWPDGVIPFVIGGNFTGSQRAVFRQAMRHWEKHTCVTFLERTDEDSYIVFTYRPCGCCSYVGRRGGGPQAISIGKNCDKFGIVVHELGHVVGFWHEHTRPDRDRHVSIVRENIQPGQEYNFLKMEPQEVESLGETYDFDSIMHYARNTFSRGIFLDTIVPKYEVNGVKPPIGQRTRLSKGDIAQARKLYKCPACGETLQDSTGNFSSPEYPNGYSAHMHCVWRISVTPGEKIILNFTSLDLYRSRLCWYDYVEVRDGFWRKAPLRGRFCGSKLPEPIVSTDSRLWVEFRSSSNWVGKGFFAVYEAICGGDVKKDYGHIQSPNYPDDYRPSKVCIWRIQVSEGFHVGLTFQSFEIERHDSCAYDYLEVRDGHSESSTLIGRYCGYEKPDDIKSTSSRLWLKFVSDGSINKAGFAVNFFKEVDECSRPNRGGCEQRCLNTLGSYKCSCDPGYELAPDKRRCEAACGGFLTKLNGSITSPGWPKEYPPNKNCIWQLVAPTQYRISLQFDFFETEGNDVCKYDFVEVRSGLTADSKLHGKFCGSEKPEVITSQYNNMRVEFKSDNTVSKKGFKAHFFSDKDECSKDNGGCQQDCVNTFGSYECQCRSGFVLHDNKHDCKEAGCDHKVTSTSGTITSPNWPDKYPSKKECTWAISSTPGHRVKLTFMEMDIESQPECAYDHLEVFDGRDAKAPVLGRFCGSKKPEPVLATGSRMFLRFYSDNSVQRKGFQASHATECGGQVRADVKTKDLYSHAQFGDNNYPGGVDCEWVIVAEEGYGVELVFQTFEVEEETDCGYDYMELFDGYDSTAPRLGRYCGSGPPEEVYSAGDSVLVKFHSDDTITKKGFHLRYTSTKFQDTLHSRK
# Assay: Inhibitory activity against Procollagen C-Proteinase (PCP)
row,SMILES,IC50
1,COc1ccc(S(=O)(=O)N(Cc2ccc3cc(C)ccc3c2)[C@H](C)C(=O)NO)cc1,220 nM
2,COc1ccc(S(=O)(=O)N(CCn2cccc2)[C@H](C)C(=O)NO)cc1,170 nM
3,COc1ccc(S(=O)(=O)N(Cc2ccc(Cl)c([N+](=O)[O-])c2)[C@H](C)C(=O)NO)cc1,30 nM
4,COc1ccc(S(=O)(=O)N(Cc2cnc(Cl)s2)[C@H](C)C(=O)NO)cc1,180 nM
5,COc1ccc(S(=O)(=O)N(Cc2ccc(Br)cc2)[C@H](C)C(=O)NO)cc1,37 nM
6,COc1ccc(S(=O)(=O)N(Cc2cc(C(F)(F)F)cc(C(F)(F)F)c2)[C@H](C)C(=O)NO)cc1,220 nM
7,COc1ccc(S(=O)(=O)N(Cc2cccc3ccccc23)[C@H](C)C(=O)NO)cc1,90 nM
8,C=CCOc1ccc2ccc(CN([C@H](C)C(=O)NO)S(=O)(=O)c3ccc(OC)cc3)cc2c1,130 nM
9,COc1ccc(S(=O)(=O)N(Cc2ccc3c(c2)OCO3)[C@H](Cc2ccc([N+](=O)[O-])cc2)C(=O)NO)cc1,32 nM
10,COc1ccc(S(=O)(=O)N(Cc2ccc3c(c2)OCO3)[C@H](COC(C)(C)C)C(=O)NO)cc1,23 nM
11,COc1ccc(S(=O)(=O)N(Cc2ccc3c(c2)OCO3)[C@H](Cc2cccs2)C(=O)NO)cc1 (stereo in doubt; 41),0.2 nM
12,COc1ccc(S(=O)(=O)N(Cc2ccc3c(c2)OCO3)[C@@H](C(=O)NO)C(=O)C(N)CNC(=O)OCc2ccccc2Cl)cc1 (stereo partly drawn),4.6 nM
13,COc1ccc(S(=O)(=O)N(Cc2ccc3c(c2)OCO3)[C@@H](C(=O)NO)C(=O)C(N)CNC(=O)OCC2c3ccccc3-c3ccccc32)cc1 (stereo partly drawn),0.024 nM
14,COc1ccc(S(=O)(=O)N(Cc2ccc(C(C)C)cc2)[C@H](C)C(=O)NO)cc1,230 nM
15,COc1ccc(S(=O)(=O)N(Cc2ccc(F)c(F)c2)[C@H](C)C(=O)NO)cc1,76 nM
16,C=CCOC(=O)NCC(N)C(=O)[C@H](C(=O)NO)N(Cc1ccc2c(c1)OCO2)S(=O)(=O)c1ccc(OC)cc1 (stereo partly drawn),23 nM
17,COc1ccc(S(=O)(=O)N(Cc2sc3scc(C)c3c2C)[C@H](C)C(=O)NO)cc1,60 nM
18,COc1ccc(S(=O)(=O)N(Cc2ccc3c(c2)OCO3)[C@@H](C(=O)NO)C(C)C)cc1,53 nM
19,COc1ccc(S(=O)(=O)N(Cc2ccccc2C(F)(F)F)[C@H](C)C(=O)NO)cc1,6 nM
20,COc1ccc(S(=O)(=O)N(Cc2ccc3c(c2)OCO3)[C@H](CCCCNC(=O)OCc2ccccc2)C(=O)NO)cc1,16 nM

row,SMILES,IC50
1,COc1ccc(S(=O)(=O)N(Cc2cc(F)cc(F)c2)[C@H](C)C(=O)NO)cc1,140 nM
2,COc1ccc(S(=O)(=O)N(Cc2ccc3c(c2)OCO3)[C@H](Cc2cncn2C(c2ccccc2)(c2ccccc2)c2ccccc2)C(=O)NO)cc1,36 nM
3,COc1ccc(S(=O)(=O)N(Cc2ccc(C)c([N+](=O)[O-])c2)[C@H](Cc2cccs2)C(=O)NO)cc1,60 nM
4,COc1ccc(S(=O)(=O)N(Cc2ccc3c(c2)OCO3)[C@H](CSc2ccc(C)cc2)C(=O)NO)cc1,45 nM
5,COc1ccc(S(=O)(=O)N(Cc2cccc(C)c2[N+](=O)[O-])[C@H](C)C(=O)NO)cc1,120 nM
6,COc1ccc(S(=O)(=O)N(Cc2sccc2Oc2ccccc2)[C@H](C)C(=O)NO)cc1,40 nM
7,COc1ccc(S(=O)(=O)N(Cc2ccc3c(c2)OCO3)[C@H](Cc2cn(C)cn2)C(=O)NO)cc1,50 nM
8,COc1ccc(S(=O)(=O)N(Cc2ccc3c(c2)OCO3)[C@H](Cc2cncn2Cc2ccccc2)C(=O)NO)cc1,27 nM
9,COc1ccc(S(=O)(=O)N(Cc2ccc(SC)cc2)[C@H](C)C(=O)NO)cc1,80 nM
10,COc1ccc(S(=O)(=O)N(Cc2cc(C)on2)[C@H](C)C(=O)NO)cc1,230 nM
11,COc1ccc(CSC[C@H](C(=O)NO)N(Cc2ccc3c(c2)OCO3)S(=O)(=O)c2ccc(OC)cc2)cc1,32 nM
12,COc1ccc(S(=O)(=O)N(Cc2ccc3c(c2)OCO3)[C@@H](C(=O)NO)C(=O)C(N)CNC(=O)OCc2ccccc2Br)cc1 (stereo partly drawn),18 nM
13,COc1ccc(S(=O)(=O)N(Cc2ccc(OC)c(C)c2C)[C@H](C)C(=O)NO)cc1,220 nM
14,COc1ccc(S(=O)(=O)N(Cc2ccc(Br)cc2)[C@H](Cc2cccs2)C(=O)NO)cc1,70 nM
15,COc1ccc(C[C@H](C(=O)NO)N(Cc2ccc3c(c2)OCO3)S(=O)(=O)c2ccc(OC)cc2)cc1,40 nM
16,COc1ccc(S(=O)(=O)N(Cc2ccc3c(c2)OCO3)[C@@H](C(=O)NO)C(=O)C(N)CNC(=O)OCc2ccccc2)cc1 (stereo partly drawn),14 nM
17,COc1ccc(S(=O)(=O)N(Cc2cccc(Br)c2)[C@H](C)C(=O)NO)cc1,93 nM
18,COc1ccc(S(=O)(=O)N(Cc2ccc3c(c2)OCO3)[C@H](Cc2cccs2)C(=O)NO)cc1 (stereo in doubt; 2),0.2 nM
19,COc1ccc(S(=O)(=O)N(Cc2ccc(Cl)c(Cl)c2)[C@H](C)C(=O)NO)cc1,120 nM
20,COc1ccc(S(=O)(=O)N(Cc2ccc3c(c2)OCO3)[C@H](CCCNC(=O)OC(C)(C)C)C(=O)NO)cc1,52 nM

# Target: T1, Bone morphogenetic protein 1
# Assay: Inhibitory activity against procollagen C-proteinase (PCP).
row,SMILES,IC50
1,COc1ccc(S(=O)(=O)N(Cc2cc(C)on2)[C@H](Cc2cccs2)C(=O)O)cc1,120 nM
2,COc1ccc(S(=O)(=O)N(Cc2ccc3c(c2)OCO3)[C@H](Cc2ccco2)C(=O)O)cc1,470 nM
3,COc1ccc(S(=O)(=O)N(Cc2cccc(Br)c2)[C@H](Cc2cccs2)C(=O)NO)cc1,260 nM
4,CCCCN(C)C(=N)NCCCC[C@H](C(=O)O)N(Cc1ccc2c(c1)OCO2)S(=O)(=O)c1ccc(OC)cc1,200 nM
5,COc1ccc(S(=O)(=O)N(Cc2cc(F)c(F)cc2F)[C@H](Cc2cccs2)C(=O)NO)cc1,180 nM
6,COC(=O)c1ccc(CN([C@H](Cc2cccs2)C(=O)NO)S(=O)(=O)c2ccc(OC)cc2)cc1,110 nM
7,COc1ccc(S(=O)(=O)N(Cc2cccc(C)c2F)[C@H](Cc2cccs2)C(=O)NO)cc1,150 nM
8,COc1ccc(S(=O)(=O)N(Cc2ccc(OC)c(C)c2C)[C@H](C)C(=O)O)cc1,200 nM
9,COc1ccc(CSC[C@H](C(=O)O)N(Cc2ccc3c(c2)OCO3)S(=O)(=O)c2ccc(OC)cc2)cc1,250 nM
10,COc1ccc(S(=O)(=O)N(Cc2ccc3c(c2)OCO3)[C@H](Cc2cccs2)C(=O)O)cc1,24 nM
11,COc1ccc(S(=O)(=O)N(Cc2cccc(F)c2F)[C@H](Cc2cccs2)C(=O)NO)cc1,100 nM
12,COc1ccc(S(=O)(=O)N(Cc2ccc3c(c2)OCO3)[C@H](CCC(=O)OC2CCCCC2)C(=O)O)cc1,470 nM
13,C=Cc1ccc(CN([C@H](Cc2cccs2)C(=O)NO)S(=O)(=O)c2ccc(OC)cc2)cc1,190 nM
14,COc1ccc(S(=O)(=O)N(Cc2ccc3c(c2)OCO3)[C@@H](C(=O)O)C2CCN(C(=O)OC(C)(C)C)CC2)cc1,26 nM
15,COc1ccc(S(=O)(=O)N(Cc2ccc(-c3cnns3)cc2)[C@H](Cc2cccs2)C(=O)NO)cc1,440 nM
16,COc1ccc(S(=O)(=O)N(Cc2cccc(Cl)c2)[C@H](Cc2cccs2)C(=O)NO)cc1,390 nM
17,C#CC[C@H](C(=O)O)N(Cc1ccc2c(c1)OCO2)S(=O)(=O)c1ccc(OC)cc1,10 nM

row,SMILES,IC50
1,COC(=O)c1ccc(CN([C@H](Cc2cccs2)C(=O)O)S(=O)(=O)c2ccc(OC)cc2)cc1,210 nM
2,COc1ccc(S(=O)(=O)N(Cc2ccc(Cl)c(Cl)c2)[C@H](Cc2cccs2)C(=O)NO)cc1,440 nM
3,COc1ccc(S(=O)(=O)N(Cc2cccc(I)c2)[C@H](C)C(=O)O)cc1,280 nM
4,COc1ccc(S(=O)(=O)N(Cc2ccc(Br)cc2F)[C@H](C)C(=O)O)cc1,490 nM
5,COc1ccc(S(=O)(=O)N(Cc2ccc(I)cc2)[C@H](Cc2cccs2)C(=O)NO)cc1,360 nM
6,COc1ccc(S(=O)(=O)N(Cc2cccc(Br)c2)[C@H](Cc2cccs2)C(=O)O)cc1,230 nM
7,C=CCOc1ccc2ccc(CN([C@H](Cc3cccs3)C(=O)NO)S(=O)(=O)c3ccc(OC)cc3)cc2c1,290 nM
8,CCN(CC)C(=N)NCCC[C@H](C(=O)O)N(Cc1ccc2c(c1)OCO2)S(=O)(=O)c1ccc(OC)cc1,28 nM
9,COc1ccc(S(=O)(=O)N(Cc2cc(C(F)(F)F)cc(C(F)(F)F)c2)[C@H](Cc2cccs2)C(=O)NO)cc1,590 nM
10,COc1ccc(S(=O)(=O)N(Cc2ccc3c(c2)OCO3)[C@H](Cc2ccncc2)C(=O)O)cc1,592 nM
11,COc1ccc(S(=O)(=O)N(Cc2ccc(Cl)cc2Cl)[C@H](Cc2cccs2)C(=O)NO)cc1,860 nM
12,COc1ccc(S(=O)(=O)N(Cc2cccc(C)c2[N+](=O)[O-])[C@H](C)C(=O)O)cc1,380 nM
13,COc1ccc(S(=O)(=O)N(Cc2ccc(OC)c(C)c2)[C@H](Cc2cccs2)C(=O)NO)cc1,490 nM
14,COc1ccc(S(=O)(=O)N(CCn2cccc2)[C@H](Cc2cccs2)C(=O)NO)cc1,610 nM
15,COc1ccc(S(=O)(=O)N(Cc2ccc3c(c2)OCO3)[C@H](Cc2ccc(Br)s2)C(=O)O)cc1,670 nM
16,COc1ccc(S(=O)(=O)N(Cc2sc3scc(C)c3c2C)[C@H](C)C(=O)O)cc1,50 nM

# Reference: ChEMBL document CHEMBL1135293, “Amino acid derived sulfonamide hydroxamates as inhibitors of procollagen C-proteinase. Part 2: Solid-phase optimization of side chains” (Bioorg Med Chem Lett, 2002)
